{
  "source": "paper PMC10033279",
  "about": "(The Journal of Biological Chemistry, 2023)",
  "key": {"[1]": {"target": "NADH:quinone oxidoreductase (NQO), PA1024 (Pseudomonas aeruginosa, UniProt Q9I4V0, Q80E)", "sequence (Q9I4V0 whole entry Q80E)": "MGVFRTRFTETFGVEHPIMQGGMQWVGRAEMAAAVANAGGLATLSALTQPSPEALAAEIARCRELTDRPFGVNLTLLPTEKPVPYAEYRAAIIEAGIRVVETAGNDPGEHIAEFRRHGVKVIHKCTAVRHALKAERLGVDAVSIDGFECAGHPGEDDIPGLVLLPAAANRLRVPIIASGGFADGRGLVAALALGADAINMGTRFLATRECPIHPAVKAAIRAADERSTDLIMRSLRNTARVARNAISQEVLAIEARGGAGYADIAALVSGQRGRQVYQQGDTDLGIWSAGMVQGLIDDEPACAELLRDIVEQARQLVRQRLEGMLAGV", "settings": "read-out: KBQ; varied NADH; 20 mM KPi, 200 mM NaCl, pH 7.0, 25 °C"}, "[2]": {"target": "NADH:quinone oxidoreductase (NQO), PA1024 (Pseudomonas aeruginosa, UniProt Q9I4V0, Q80G)", "sequence (Q9I4V0 whole entry Q80G)": "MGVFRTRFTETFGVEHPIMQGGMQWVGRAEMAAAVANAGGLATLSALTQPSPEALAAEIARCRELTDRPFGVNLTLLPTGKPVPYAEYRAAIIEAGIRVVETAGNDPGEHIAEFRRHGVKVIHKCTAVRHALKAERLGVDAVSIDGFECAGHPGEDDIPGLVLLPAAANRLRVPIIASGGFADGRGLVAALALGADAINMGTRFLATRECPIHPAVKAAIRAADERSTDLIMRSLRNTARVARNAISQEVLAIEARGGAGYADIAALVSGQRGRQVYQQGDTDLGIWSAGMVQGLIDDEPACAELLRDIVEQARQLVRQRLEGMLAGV", "settings": "read-out: KBQ; varied NADH; 20 mM KPi, 200 mM NaCl, pH 7.0, 25 °C"}, "[3]": {"target": "T1, NADH:quinone oxidoreductase (NQO), PA1024 (Pseudomonas aeruginosa, UniProt Q9I4V0)", "T1 construct": "full-length gene PA1024 in pET20b(+), expressed in E. coli Rosetta(DE3)pLysS, purified; EC 1.6.5.9", "T1 sequence (Q9I4V0 whole entry)": "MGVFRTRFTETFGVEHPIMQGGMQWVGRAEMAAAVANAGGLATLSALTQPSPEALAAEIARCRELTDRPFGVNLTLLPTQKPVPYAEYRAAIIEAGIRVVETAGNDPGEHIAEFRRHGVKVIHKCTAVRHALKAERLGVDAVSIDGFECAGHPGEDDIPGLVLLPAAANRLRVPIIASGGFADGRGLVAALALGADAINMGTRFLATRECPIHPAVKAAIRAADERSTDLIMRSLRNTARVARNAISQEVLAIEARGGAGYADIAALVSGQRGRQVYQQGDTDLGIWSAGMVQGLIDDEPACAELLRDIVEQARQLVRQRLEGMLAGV", "assay": "steady-state NADH oxidation at […] nm, ping-pong global fit", "type": "biochemical", "settings": "varied NADH; 20 mM KPi, 200 mM NaCl, pH 7.0, 25 °C; read-out: KBQ"}, "[4]": {"target": "T1, NADH:quinone oxidoreductase (NQO), PA1024", "assay": "steady-state NADH oxidation at […] nm, Michaelis-Menten fit", "type": "biochemical", "settings": "100 μM NADH fixed (not saturating; apparent; unreliable); 20 mM KPi, 200 mM NaCl, pH 7.0, 25 °C"}, "[5]": {"target": "T1, NADH:quinone oxidoreductase (NQO), PA1024", "assay": "UV-visible absorption, FMN extraction by heat denaturation", "type": "binding", "settings": "10 mM Tris-Cl, 200 mM NaCl, 10% glycerol, pH 8.0, 25 °C; stoichiometry of co-purified FMN"}, "[6]": {"target": "T1, NADH:quinone oxidoreductase (NQO), PA1024", "assay": "anaerobic stopped-flow flavin reduction at […] nm", "type": "biochemical", "settings": "20 mM KPi, 200 mM NaCl, pH 7.0, 25 °C, unreliable (upper-bound estimate, saturated at lowest NADH)"}, "[7]": {"target": "T1, NADH:quinone oxidoreductase (NQO), PA1024", "assay": "anaerobic flavin reduction, absorption spectra", "type": "biochemical", "settings": "500 μM NADPH, pH 7, 25 °C, poor substrate"}},
  "data": [
    {"smiles": "O=C1C=CC(=O)C=C1", "note": "[1,4-benzoquinone]", "values": [
      {"measurement": "Km", "setting": "[1]", "result": "15 ± 1", "unit": "µM"},
      {"measurement": "Km", "setting": "[2]", "result": "20 ± 1", "unit": "µM"},
      {"measurement": "Km", "setting": "[3]", "result": "30 ± 1", "unit": "µM"}
    ]},
    {"smiles": "COC1=C(OC)C(=O)C(C)=CC1=O", "note": "[2,3-dimethoxy-5-methyl-1,4-benzoquinone]", "values": [
      {"measurement": "^app(Km)", "setting": "[4]", "result": "60 ± 1", "unit": "µM"}
    ]},
    {"smiles": "CC1=CC(=O)C=CC1=O", "note": "[2-methyl-1,4-benzoquinone]", "values": [
      {"measurement": "^app(Km)", "setting": "[4]", "result": "96 ± 1", "unit": "µM"}
    ]},
    {"smiles": "O=C1C=CC(=O)c2c(O)cccc21", "note": "[5-hydroxy-1,4-naphthoquinone]", "values": [
      {"measurement": "^app(Km)", "setting": "[4]", "result": "21 ± 1", "unit": "µM"}
    ]},
    {"smiles": "Cc1cc2nc3c(=O)[nH]c(=O)nc-3n(C[C@H](O)[C@H](O)[C@H](O)COP(=O)(O)O)c2cc1C", "note": "[FMN]", "values": [
      {"measurement": "FMN/Protein", "setting": "[5]", "result": 0.40}
    ]},
    {"smiles": "NC(=O)C1=CN([C@@H]2O[C@H](COP(=O)(O)OP(=O)(O)OC[C@H]3O[C@@H](n4cnc5c(N)ncnc54)[C@H](O)[C@@H]3O)[C@@H](O)[C@H]2O)C=CC1", "note": "[NADH]", "values": [
      {"measurement": "Kd (μM)", "setting": "[6]", "result": "<= ≤ 3 μM"}
    ]},
    {"smiles": "NC(=O)C1=CN([C@@H]2O[C@H](COP(=O)(O)OP(=O)(O)OC[C@H]3O[C@@H](n4cnc5c(N)ncnc54)[C@H](OP(=O)(O)O)[C@@H]3O)[C@@H](O)[C@H]2O)C=CC1", "note": "[NADPH]", "values": [
      {"measurement": "% flavin reduction over 10 min at 500 μM", "setting": "[7]", "result": "~ 10%"}
    ]}
  ]
}
